Measurements published in ChEMBL document CHEMBL1201862, “PubChem BioAssay data set” (2004).
pIC50: −log10 of the molar value. The source made the active and inactive calls.

Tests used:
Vero [1] = assay: cells; assay type: functional; conditions: Chlorocebus sabaeus
Vero [2] = assay: cells; assay type: functional, cell-based; conditions: Chlorocebus sabaeus
[3] = HEp-2 cell cytotoxicity, dose response, cytotoxicity control for RSV inhibitor project, HTS (AID 2410); assay type: functional; conditions: human respiratory syncytial virus
Fatty acid synthase [4] = biological target: T1, Fatty acid synthase (Homo sapiens, UniProt P49327); assay: FAS thioesterase domain inhibitors, dose response, biochemical, endpoint fluorescence intensity, uHTS hits (AID 624327); assay type: functional;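 further: fluorescence from hydrolysis of an O-methyl fluorescein acyl ester substrate by the enzyme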
HEK293 [5] = assay: inhibitors of LMP1-driven NF-kB reporter, dose response, cell-based, HEK293, luciferase, cherry-pick (AID 588343); assay type: functional; conditions: Homo sapiens
Fatty acid synthase [6] = biological target: T1, Fatty acid synthase; assay: FAS thioesterase domain inhibitors, dose response, biochemical, kinetic fluorescence intensity (AID 624326); assay type: functional;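 further: rate of fluorescence rise from hydrolysis of a fluorogenic O-methyl fluorescein ester substrate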
Escherichia coli = assay: microbe, parasite or virus in culture
HeLa = assay: HeLa cell cytotoxicity, dose response, cytotoxicity control for MITF activator project, CellTiter-Glo luminescence, cherry-pick samples (AID 540259); assay type: functional, cell-based; conditions: Homo sapiens
[7] = growth suppression of PTEN-null colon cells, dose response, cell-based, HCT116 PTEN knockout (AID 1047); assay type: functional;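 further: HCT116 colon tumor cells with PTEN knocked out; cells exposed to compound for 60 hours before readout; potency for loss of cell viability measured by luminescence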
[8] = growth suppression of beta-catenin-knockout colon cells, dose response, cell-based, HCT116, human colon tumor (AID 1045); assay type: functional;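 further: HCT116 colon tumor cells with beta catenin knocked out; cells exposed to compound for 60 hours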
Mu-type opioid receptor = Mu-type opioid receptor (Homo sapiens, UniProt P35372); assay: HTS Image-Based Screen for Agonists of the MOR Receptor. [Related pubchem assays (depositor defined):AID1777, AID1785, AID1786, AID2133]; assay type: functional;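 further: imaging of beta-arrestin GFP recruitment into spots after receptor activation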
[9] = biological target: T2, Histone-lysine N-methyltransferase NSD2 (Homo sapiens, UniProt O96028); assay type: biochemical
T2 sequence (O96028 whole entry): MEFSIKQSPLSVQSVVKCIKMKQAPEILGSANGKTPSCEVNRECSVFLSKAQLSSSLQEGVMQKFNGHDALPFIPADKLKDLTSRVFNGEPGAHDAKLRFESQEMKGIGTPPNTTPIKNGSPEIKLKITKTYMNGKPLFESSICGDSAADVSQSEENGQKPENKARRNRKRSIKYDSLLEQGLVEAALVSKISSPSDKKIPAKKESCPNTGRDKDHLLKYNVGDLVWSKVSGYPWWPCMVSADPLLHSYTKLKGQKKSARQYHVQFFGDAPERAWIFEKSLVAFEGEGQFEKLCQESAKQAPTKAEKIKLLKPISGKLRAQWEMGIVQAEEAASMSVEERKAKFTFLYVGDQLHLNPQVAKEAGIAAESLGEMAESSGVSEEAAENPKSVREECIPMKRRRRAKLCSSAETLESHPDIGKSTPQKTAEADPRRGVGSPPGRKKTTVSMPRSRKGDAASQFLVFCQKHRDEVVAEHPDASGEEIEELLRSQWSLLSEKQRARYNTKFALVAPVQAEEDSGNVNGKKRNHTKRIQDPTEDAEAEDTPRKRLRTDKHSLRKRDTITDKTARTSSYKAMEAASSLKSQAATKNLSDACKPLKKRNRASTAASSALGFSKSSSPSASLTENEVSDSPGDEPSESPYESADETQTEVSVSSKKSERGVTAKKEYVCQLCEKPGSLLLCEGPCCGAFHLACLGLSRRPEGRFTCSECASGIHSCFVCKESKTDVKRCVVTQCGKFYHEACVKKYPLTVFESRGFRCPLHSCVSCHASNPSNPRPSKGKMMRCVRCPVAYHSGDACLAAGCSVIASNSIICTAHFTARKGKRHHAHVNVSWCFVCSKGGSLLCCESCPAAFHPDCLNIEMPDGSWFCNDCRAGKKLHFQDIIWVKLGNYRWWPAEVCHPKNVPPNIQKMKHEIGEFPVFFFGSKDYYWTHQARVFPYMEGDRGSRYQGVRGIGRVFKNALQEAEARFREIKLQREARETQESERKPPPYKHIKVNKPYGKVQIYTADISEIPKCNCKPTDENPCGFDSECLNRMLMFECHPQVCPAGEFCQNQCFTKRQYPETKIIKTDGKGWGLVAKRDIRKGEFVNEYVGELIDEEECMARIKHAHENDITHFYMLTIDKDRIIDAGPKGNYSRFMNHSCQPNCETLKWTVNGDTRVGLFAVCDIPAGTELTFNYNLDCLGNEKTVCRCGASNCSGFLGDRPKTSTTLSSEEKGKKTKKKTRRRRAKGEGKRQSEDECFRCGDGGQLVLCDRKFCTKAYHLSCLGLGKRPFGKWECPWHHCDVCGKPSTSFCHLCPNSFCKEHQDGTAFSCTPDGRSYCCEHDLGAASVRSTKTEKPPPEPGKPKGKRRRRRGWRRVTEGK

[10] = biological target: T3, Short transient receptor potential channel 4 (Mus musculus, UniProt Q9QUQ5); assay: mouse TRPC4 channel activators, dose response, cell-based, HEK293 TRPC4/mu-opioid, Fluo-4 calcium (AID 434937); assay type: functional
T3 sequence (Q9QUQ5 whole entry): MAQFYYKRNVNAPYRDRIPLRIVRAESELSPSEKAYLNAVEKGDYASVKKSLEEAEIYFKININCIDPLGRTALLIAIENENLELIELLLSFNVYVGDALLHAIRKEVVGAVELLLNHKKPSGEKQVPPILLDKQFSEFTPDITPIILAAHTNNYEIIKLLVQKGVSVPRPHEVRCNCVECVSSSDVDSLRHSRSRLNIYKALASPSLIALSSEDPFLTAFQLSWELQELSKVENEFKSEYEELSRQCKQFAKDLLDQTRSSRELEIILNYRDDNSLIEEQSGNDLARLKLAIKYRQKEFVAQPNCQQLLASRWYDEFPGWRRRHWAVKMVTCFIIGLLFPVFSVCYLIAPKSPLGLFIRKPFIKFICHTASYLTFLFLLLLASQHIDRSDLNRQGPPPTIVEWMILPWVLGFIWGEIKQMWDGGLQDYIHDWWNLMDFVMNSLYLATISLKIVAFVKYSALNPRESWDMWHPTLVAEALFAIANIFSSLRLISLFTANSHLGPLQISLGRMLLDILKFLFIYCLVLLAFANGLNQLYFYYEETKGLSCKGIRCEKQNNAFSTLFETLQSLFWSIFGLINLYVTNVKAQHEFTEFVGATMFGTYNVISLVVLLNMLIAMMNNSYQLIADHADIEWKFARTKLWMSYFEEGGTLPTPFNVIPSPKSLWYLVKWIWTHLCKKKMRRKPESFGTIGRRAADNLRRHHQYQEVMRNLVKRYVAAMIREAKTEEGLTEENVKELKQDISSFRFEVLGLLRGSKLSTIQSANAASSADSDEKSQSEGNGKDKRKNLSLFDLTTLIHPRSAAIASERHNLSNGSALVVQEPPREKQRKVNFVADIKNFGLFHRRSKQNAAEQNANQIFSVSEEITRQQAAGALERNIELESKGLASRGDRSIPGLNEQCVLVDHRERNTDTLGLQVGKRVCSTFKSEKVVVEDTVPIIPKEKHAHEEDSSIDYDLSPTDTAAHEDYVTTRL

[11] = biological target: T4, Delta-type opioid receptor (Homo sapiens, UniProt P41143); assay: HTS Image-Based Screen for Antagonists of the DOR Receptor. [Related pubchem assays (depositor defined):AID1777, AID1785, AID1786, AID2133]; assay type: functional
HEK293 [12] = assay: cells; conditions: Homo sapiens
Beta-galactosidase = Beta-galactosidase (Escherichia coli, UniProt Q8VNN2); assay type: functional
[13] = biological target: T5, Kappa-type opioid receptor (Homo sapiens, UniProt P41145); assay type: functional
[14] = biological target: T5, Kappa-type opioid receptor; assay type: functional; remark: listed apart in the source
HEK293 [15] = assay: cells; conditions: Homo sapiens; remark: listed apart in the source
[16] = Shn3 3'UTR reporter inhibitors, dose response, cell-based, Clone20 osteoblasts, firefly luciferase, cherry-picked (AID 624132); assay type: functional;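 further: firefly luciferase luminescence from reporter carrying the Shn3 3'UTR in osteoblasts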
[17] = HepG2 cell cytotoxicity, dose response, cytotoxicity control for Shn3 inhibitor project, CellTiter-Glo, cherry-picked (AID 624134); assay type: functional, cell-based
[18] = biological target: T4, Delta-type opioid receptor; assay: HTS Image-Based Screen for Agonists of the DOR Receptor. [Related pubchem assays (depositor defined):AID1777, AID1786, AID2133]; assay type: functional
[19] = microbe, parasite or virus in culture; assay type: functional; conditions: Mycobacterium tuberculosis

T4 sequence (P41143 whole entry): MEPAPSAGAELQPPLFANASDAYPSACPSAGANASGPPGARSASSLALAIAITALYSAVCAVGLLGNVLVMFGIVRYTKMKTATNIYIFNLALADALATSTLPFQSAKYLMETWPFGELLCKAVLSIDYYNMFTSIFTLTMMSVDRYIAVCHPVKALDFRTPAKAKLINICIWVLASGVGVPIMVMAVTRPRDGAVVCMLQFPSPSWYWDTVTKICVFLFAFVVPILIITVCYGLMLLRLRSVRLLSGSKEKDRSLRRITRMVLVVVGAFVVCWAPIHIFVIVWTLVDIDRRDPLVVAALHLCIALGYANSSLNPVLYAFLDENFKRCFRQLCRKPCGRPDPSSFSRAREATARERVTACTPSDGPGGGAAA
T1 sequence (P49327 whole entry, the tested form may be a part): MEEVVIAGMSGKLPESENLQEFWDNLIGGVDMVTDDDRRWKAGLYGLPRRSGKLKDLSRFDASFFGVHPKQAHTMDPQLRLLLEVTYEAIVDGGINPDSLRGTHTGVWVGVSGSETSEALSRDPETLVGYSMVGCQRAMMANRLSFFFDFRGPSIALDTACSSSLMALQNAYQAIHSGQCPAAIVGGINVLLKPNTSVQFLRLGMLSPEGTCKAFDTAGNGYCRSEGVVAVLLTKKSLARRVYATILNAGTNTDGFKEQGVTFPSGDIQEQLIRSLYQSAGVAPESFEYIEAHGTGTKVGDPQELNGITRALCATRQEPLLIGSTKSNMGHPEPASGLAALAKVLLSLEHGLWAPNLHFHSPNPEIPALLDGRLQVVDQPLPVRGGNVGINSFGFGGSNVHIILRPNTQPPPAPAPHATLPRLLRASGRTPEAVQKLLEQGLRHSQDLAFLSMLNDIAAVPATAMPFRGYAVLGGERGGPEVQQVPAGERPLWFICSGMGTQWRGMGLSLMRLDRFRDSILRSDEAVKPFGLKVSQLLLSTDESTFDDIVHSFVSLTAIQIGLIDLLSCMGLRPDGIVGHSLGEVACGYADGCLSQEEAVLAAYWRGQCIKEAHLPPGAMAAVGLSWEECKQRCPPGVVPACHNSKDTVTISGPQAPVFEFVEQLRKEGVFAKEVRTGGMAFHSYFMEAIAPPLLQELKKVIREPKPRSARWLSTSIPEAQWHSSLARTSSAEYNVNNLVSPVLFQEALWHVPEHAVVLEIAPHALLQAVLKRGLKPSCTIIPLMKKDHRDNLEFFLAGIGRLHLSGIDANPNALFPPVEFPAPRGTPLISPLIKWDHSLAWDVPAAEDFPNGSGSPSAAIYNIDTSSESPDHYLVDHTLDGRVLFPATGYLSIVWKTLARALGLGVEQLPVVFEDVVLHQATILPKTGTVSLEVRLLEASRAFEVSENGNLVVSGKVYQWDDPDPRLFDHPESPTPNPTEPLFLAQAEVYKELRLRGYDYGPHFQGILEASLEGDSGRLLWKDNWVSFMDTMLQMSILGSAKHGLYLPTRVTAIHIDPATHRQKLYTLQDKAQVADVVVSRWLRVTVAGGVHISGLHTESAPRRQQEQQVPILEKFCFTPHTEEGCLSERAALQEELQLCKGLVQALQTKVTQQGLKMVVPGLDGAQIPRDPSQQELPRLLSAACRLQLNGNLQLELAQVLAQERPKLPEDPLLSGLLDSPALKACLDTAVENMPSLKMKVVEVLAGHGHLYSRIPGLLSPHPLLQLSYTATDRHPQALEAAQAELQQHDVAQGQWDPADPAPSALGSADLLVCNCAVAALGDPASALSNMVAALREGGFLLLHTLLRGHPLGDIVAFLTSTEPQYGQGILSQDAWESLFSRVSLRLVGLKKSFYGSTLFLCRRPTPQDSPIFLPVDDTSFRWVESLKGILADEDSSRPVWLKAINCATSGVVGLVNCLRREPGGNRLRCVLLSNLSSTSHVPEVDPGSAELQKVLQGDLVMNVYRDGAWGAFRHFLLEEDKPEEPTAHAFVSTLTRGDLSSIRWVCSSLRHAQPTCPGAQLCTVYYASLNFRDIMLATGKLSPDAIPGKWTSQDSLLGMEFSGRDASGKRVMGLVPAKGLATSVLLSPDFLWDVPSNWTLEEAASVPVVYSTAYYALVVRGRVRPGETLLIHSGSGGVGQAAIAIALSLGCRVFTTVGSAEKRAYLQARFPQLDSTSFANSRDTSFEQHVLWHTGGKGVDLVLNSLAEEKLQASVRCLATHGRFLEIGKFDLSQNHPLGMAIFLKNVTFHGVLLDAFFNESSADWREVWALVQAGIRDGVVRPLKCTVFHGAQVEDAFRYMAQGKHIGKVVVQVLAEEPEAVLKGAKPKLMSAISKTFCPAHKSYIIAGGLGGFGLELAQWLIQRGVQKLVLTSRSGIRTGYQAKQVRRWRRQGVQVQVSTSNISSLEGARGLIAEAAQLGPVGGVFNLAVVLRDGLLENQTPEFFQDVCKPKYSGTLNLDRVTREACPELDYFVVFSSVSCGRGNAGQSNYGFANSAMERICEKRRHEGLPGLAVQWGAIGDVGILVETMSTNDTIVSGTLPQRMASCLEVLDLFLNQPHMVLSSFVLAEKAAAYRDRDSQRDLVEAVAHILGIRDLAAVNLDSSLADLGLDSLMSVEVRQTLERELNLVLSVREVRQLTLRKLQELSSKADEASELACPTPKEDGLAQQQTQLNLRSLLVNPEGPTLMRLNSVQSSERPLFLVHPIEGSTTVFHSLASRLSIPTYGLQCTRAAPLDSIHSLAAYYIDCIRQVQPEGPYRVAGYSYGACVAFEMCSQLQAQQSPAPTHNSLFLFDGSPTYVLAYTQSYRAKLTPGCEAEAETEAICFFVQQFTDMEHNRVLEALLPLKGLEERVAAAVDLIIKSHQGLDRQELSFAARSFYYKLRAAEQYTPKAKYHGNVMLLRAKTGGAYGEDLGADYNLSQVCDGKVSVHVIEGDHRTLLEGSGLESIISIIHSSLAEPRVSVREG
T5 sequence (P41145 whole entry): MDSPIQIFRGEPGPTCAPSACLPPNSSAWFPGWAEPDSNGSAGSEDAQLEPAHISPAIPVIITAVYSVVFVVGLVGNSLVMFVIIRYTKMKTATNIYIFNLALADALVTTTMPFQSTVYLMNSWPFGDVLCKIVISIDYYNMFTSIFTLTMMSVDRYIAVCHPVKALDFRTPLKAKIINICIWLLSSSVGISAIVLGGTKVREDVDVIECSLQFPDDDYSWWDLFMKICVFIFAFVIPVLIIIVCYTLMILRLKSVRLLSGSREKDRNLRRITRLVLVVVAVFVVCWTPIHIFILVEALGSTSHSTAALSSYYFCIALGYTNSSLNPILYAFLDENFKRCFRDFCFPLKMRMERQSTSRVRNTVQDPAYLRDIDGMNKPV
Mu-type opioid receptor, sequence (P35372 whole entry): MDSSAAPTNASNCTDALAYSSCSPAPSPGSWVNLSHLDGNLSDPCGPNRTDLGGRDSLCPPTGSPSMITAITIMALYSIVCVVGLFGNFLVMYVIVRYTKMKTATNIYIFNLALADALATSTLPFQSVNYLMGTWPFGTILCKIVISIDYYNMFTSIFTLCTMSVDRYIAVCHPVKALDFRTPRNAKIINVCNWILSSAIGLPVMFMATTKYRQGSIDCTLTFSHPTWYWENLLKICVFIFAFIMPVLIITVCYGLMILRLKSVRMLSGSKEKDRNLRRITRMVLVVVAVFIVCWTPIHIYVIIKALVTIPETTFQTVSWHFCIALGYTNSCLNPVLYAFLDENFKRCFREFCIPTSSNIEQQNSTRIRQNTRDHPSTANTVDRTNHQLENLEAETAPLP
Beta-galactosidase, sequence (Q8VNN2 whole entry): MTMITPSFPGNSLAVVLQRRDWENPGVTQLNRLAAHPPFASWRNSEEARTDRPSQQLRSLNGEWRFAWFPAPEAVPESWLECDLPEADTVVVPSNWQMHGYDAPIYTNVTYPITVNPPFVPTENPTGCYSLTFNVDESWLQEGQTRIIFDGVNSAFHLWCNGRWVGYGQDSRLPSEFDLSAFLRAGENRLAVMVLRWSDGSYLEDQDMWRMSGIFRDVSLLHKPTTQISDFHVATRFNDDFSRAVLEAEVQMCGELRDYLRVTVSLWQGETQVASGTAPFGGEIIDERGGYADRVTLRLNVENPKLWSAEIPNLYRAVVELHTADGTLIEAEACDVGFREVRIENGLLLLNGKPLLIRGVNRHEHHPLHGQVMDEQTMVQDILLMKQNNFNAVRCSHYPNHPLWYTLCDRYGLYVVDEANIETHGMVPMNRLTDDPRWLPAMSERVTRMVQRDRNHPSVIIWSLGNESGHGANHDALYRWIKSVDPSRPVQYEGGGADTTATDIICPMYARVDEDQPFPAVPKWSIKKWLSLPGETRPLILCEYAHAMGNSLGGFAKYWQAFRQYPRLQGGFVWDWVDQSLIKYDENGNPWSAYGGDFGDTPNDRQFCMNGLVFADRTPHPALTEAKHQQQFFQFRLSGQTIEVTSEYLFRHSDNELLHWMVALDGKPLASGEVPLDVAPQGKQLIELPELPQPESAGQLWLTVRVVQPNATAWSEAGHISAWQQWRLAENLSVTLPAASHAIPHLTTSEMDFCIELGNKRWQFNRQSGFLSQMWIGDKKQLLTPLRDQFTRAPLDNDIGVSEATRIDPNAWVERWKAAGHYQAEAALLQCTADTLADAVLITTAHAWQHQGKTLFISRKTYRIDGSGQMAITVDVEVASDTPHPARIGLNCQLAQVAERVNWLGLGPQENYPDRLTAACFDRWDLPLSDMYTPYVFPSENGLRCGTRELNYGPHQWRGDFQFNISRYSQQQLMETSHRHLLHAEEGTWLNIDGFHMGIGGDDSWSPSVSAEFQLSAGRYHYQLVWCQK

Question: For O=C(c1cccc(COc2cccc3ccccc23)c1)N1CCCC1, which CC50 (Vero [1]) is on record?
Answer: The CC50 was > 25 µM (active).

Question: What about the IC50 (cells) of the same compound?
Answer: Its IC50 is > 50 µM (active).

Question: What about the IC50 (Vero [2]) of the same compound?
Answer: The IC50 was > 25 µM (active).

Question: What about the CC50 [3] of the same compound?
Answer: Its CC50 is 21.3 µM (active).

Question: With O=C(NC(Cc1c[nH]c2ccccc12)C(=O)Nc1ccc(F)c([N+](=O)[O-])c1)c1cccs1 (stereo not drawn) as the compound, how does the CC50 (Vero [1]) read?
Answer: Its CC50 is 18.5 µM (active).

Question: And the IC50 (cells)?
Answer: Its IC50 is 10.2 µM (active).

Question: And the IC50 (Vero [2])?
Answer: Its IC50 is 22.4 µM (active).

Question: What about the IC50 (Fatty acid synthase [4]) of the same compound?
Answer: The IC50 was 7.53 µM (active).

Question: And the AC50 (HEK293 [5])?
Answer: Its AC50 is 1.37 µM (active).

Question: And the IC50 (Fatty acid synthase [6])?
Answer: Its IC50 is 3.78 µM (active).

Question: And the CC50 [3]?
Answer: The CC50 was 13.1 µM (active).

Question: With CC(C)(C)c1nn2cnnc2n(/N=C/c2cccc3ccccc23)c1=O as the compound, how does the AC50 (Escherichia coli) read?
Answer: Its AC50 is 38.5 µM (active).

Question: Which AC50 (HeLa) does the source give for CCc1ccc(NC(=O)C(S)=NC2CCCCC2)cc1 here?
Answer: The AC50 was 182 µM (active).

Question: For Fc1ccccc1CSc1ncnc2c1ncn2C1CCCO1 (stereo not drawn), which IC50 (Vero [2]) is on record?
Answer: The IC50 was 8.43 µM (active).

Question: For Cc1ccccc1OCC(=O)Nc1ccc(S(=O)(=O)Nc2onc(C)c2C)cc1, which AC50 (Escherichia coli) is on record?
Answer: Its AC50 is 39.2 µM (active).

Question: Which AC50 (Escherichia coli) does the source give for COc1cccc(CN(C(=O)Cc2c[nH]c3ccccc23)C(C(=O)NC2CCCCC2)c2ccc(C)o2)c1 (stereo not drawn) here?
Answer: Its AC50 is 44.4 µM (active).

Question: And the EC50 [7]?
Answer: Its EC50 is 19.9 µM (active).

Question: And the EC50 [8]?
Answer: The EC50 was 22.3 µM (active).

Question: With COc1cc(OC)c(OC)cc1CCC(C)NCCC(c1ccccc1)c1ccccc1 (stereo not drawn) as the compound, how does the EC50 (Mu-type opioid receptor) read?
Answer: Its EC50 is > 32 µM (inactive).

Question: What about the AC50 [9] of the same compound?
Answer: The AC50 was 15.8 µM (active).

Question: And the EC50 [10]?
Answer: Its EC50 is 6.68 µM (active).

Question: What about the IC50 [11] of the same compound?
Answer: Its IC50 is 24.4 µM (inactive).

Question: And the EC50 (HEK293 [12])?
Answer: The EC50 was > 59.6 µM (inactive).

Question: And the EC50 (Beta-galactosidase)?
Answer: The EC50 was > 31.5 µM (inactive).

Question: What about the IC50 [13] of the same compound?
Answer: The IC50 was 10.9 µM (active).

Question: What about the pIC50 [14] of the same compound?
Answer: Its pIC50 is under 4.49.

Question: What about the EC50 (HEK293 [15]) of the same compound?
Answer: Its EC50 is > 59.6 µM (inactive).

Question: What about the AC50 [16] of the same compound?
Answer: Its AC50 is 3.99 µM (active).

Question: And the AC50 [17]?
Answer: Its AC50 is 8.98 µM (active).

Question: And the EC50 [18]?
Answer: Its EC50 is > 32 µM (inactive).

Question: What about the CC50 [19] of the same compound?
Answer: The CC50 was 13.9 µM (active).

Question: And the CC50 [3]?
Answer: Its CC50 is 14.6 µM (active).

Question: For CC(C)Cc1cc(C(=O)Nc2ccc(Br)cc2)no1, which AC50 (HeLa) is on record?
Answer: The AC50 was 113 µM (active).
